For 31 compounds, remaining activity results are on record in article PMC8286840, “Identifying SARS-CoV-2 antiviral compounds by screening for small molecule inhibitors of Nsp3 papain-like protease” (Biochemical Journal, 2021).

Experiment [1] concerns the target T1, SARS-CoV-2 PLpro (nsp3 1564–1878) (Severe acute respiratory syndrome coronavirus 2, UniProt P0DTD1). Kind of experiment: biochemical. Also on record: FRET-quenched peptide (Pro3) cleavage by PLpro, 10 min pre-incubation, slope over 20 min, normalised to no-compound control. Particulars: low concentration screen, read-out: % of control remaining.
The target in experiment [2] is T1, SARS-CoV-2 PLpro (nsp3 1564–1878). Kind of experiment: biochemical. The arrangement: FRET-quenched peptide (Pro3) cleavage by PLpro, 10 min pre-incubation, slope over 20 min, normalised to no-compound control. Particulars: high concentration screen, read-out: % of control remaining.

Molecules are shown by their SMILES. Structures can show the parent of a compound that is named as a salt. Where two headings read alike, the source gives them in different places.

As to `CO[C@H]1[C@H](O)[C@H](O[C@H]2CC[C@@]3(C=O)[C@H](CC[C@@H]4[C@@H]3CC[C@]3(C)[C@@H](C5=CC(=O)OC5)CC[C@]43O)C2)O[C@@H](C)[C@@H]1O` [Peruvoside], the remaining activity at 1.25 µM in experiment [1] (Well no.=3687) came to 97.8%. In addition, the remaining activity at 3.75 µM in experiment [2] (Well no.=3687) came to 102%.
Take `C[n+]1cc2c3c(ccc2c2ccc4cc5c(cc4c21)OCO5)OCO3` [Sanguinarine]: the remaining activity at 1.25 µM in experiment [1] (Well no.=3779) turned out to be 94.3%. Moreover, the remaining activity at 3.75 µM in experiment [2] (Well no.=3779) came to 90.1%.
For `CCCCCCCCCCC/C=C\CCCCCC(=O)O` [7(Z)-Nonadecenoic acid], the remaining activity at 1.25 µM in experiment [1] (Well no.=4364) amounted to 107%. Further, in experiment [2] (Well no.=4364), the remaining activity at 3.75 µM was 100%.
`C[N+](C)(C)CC=O` [Betaine aldehyde chloride]: the remaining activity at 1.25 µM in experiment [1] (Well no.=125) is 96.6%. In experiment [2] (Well no.=125), the remaining activity at 3.75 µM stood at 102%.
As to `CN1CCN(C(=O)c2cc3cc(Cl)ccc3[nH]2)CC1` [JNJ-7777120], the remaining activity at 1.25 µM in experiment [1] (Well no.=5217) was 101%; in experiment [1] (Well no.=6949) it was 103%. Moreover, the remaining activity at 3.75 µM came to 104% in experiment [2] (Well no.=5217) and 96% in experiment [2] (Well no.=6949).
Take `CC(=O)OCC(=O)[C@@]1(O)CC[C@H]2[C@@H]3CCC4=CC(=O)CC[C@]4(C)[C@H]3[C@@H](O)C[C@@]21C` [Hydrocortisone (acetate)]: the remaining activity at 1.25 µM in experiment [1] (Well no.=7342) is 105%. In addition, in experiment [2] (Well no.=7342), the remaining activity at 3.75 µM was determined as 109%.
For the compound `CCCN(CCC)C(=O)Cc1c(-c2ccc(Cl)cc2)nc2ccc(Cl)cn12` [Alpidem], the remaining activity at 1.25 µM in experiment [1] (Well no.=5821) stood at 108%. The remaining activity at 3.75 µM in experiment [2] (Well no.=5821) stood at 106%.
Take `N[C@H](CCC(=O)NCS(=O)(=O)O)C(=O)O` [gamma-D-Glutamylaminomethylsulfonic acid]: in experiment [1] (Well no.=652), the remaining activity at 1.25 µM worked out at 92.4%. Moreover, the remaining activity at 3.75 µM in experiment [2] (Well no.=652) came to 94%.
`CSc1ccc2c(c1)N(CCC1CCCCN1C)c1ccccc1S2` (stereo not shown) [Thioridazine]: the remaining activity at 1.25 µM in experiment [1] (Well no.=2140) was determined as 97.3%. Further, the remaining activity at 3.75 µM in experiment [2] (Well no.=2140) came out at 96.6%.
Consider `CC[C@@H]1C(=O)OC[C@@H]1Cc1cncn1C` [Pilocarpine nitrate], for which the remaining activity at 1.25 µM in experiment [1] (Well no.=1150) turned out to be 96.8%. For the same compound, the remaining activity at 3.75 µM in experiment [2] (Well no.=1150) was 97%.
On to `CN(C)CCC=C1c2ccccc2CCc2ccccc21` [Amitriptyline hydrochloride], for which, in experiment [1] (Well no.=150), the remaining activity at 1.25 µM came out at 103%. The remaining activity at 3.75 µM in experiment [2] (Well no.=150) was found to be 98.5%.
On to `CCCn1c(=O)c2[nH]c(C3CCCC3)nc2n(CCC)c1=O` [8-Cyclopentyl-1,3-dipropylxanthine], for which the remaining activity at 1.25 µM in experiment [1] (Well no.=675) was determined as 93.6%. Further, the remaining activity at 3.75 µM in experiment [2] (Well no.=675) is 97.1%.
Take `CCOc1nc(NC(=O)Cc2cc(OC)ccc2OC)cc(N)c1C#N` [JNK Inhibitor VIII]: in experiment [1] (Well no.=2550), the remaining activity at 1.25 µM was determined as 99.5%. For the same compound, the remaining activity at 3.75 µM in experiment [2] (Well no.=2550) was found to be 100%.
For the compound `CC(C)c1ccc2c(c1)c(SC(C)(C)C)c(CC(C)(C)C(=O)O)n2Cc1ccc(Cl)cc1` [MK-886], the remaining activity at 1.25 µM in experiment [1] (Well no.=1018) came to 105%. In addition, the remaining activity at 3.75 µM in experiment [2] (Well no.=1018) came to 104%.
`CN1CCN2c3c(cccc31)[C@@H]1CN(CCCC(=O)c3ccc(F)cc3)CC[C@@H]12` [lumateperone (Tosylate)]: in experiment [1] (Well no.=7807), the remaining activity at 1.25 µM was found to be 104%. Besides, in experiment [2] (Well no.=7807), the remaining activity at 3.75 µM stood at 108%.
`O=C(O)C[C@H](O)C[C@H](O)/C=C/c1c(C2CC2)nc2ccccc2c1-c1ccc(F)cc1` [Pitavastatin Calcium]: the remaining activity at 1.25 µM in experiment [1] (Well no.=8334) is 97.4%. Besides, in experiment [2] (Well no.=8334), the remaining activity at 3.75 µM came to 95.7%.
On to `C[C@H]1CC[C@@H]2[C@@H](C)[C@H]3[C@H](C[C@H]4[C@@H]5CC=C6C[C@@H](O[C@@H]7O[C@H](CO)[C@H](O)[C@H](O[C@@H]8O[C@H](CO)[C@@H](O)[C@H](O)[C@H]8O)[C@H]7O[C@H]7O[C@@H](C)[C@H](O)[C@@H](O)[C@H]7O)CC[C@]6(C)[C@H]5CC[C@]34C)N2C1` (racemic), for which the remaining activity at 1.25 µM in experiment [1] (Well no.=3465) is 105%. For the same compound, in experiment [2] (Well no.=3465), the remaining activity at 3.75 µM turned out to be 105%.
As to `CC(=O)OCC(=O)NCCCOc1cccc(CN2CCCCC2)c1` [Roxatidine acetate.HCl], the remaining activity at 1.25 µM in experiment [1] (Well no.=2235) was 97.2%. In addition, in experiment [2] (Well no.=2235), the remaining activity at 3.75 µM stood at 101%.
Turning to `CO/N=C(\C(=O)N[C@@H]1C(=O)N2C(C(=O)O)=C(CSc3nc(=O)c(O)nn3C)CS[C@H]12)c1csc(N)n1` [Ceftriaxone sodium], in experiment [1] (Well no.=132), the remaining activity at 1.25 µM was 105%. In addition, the remaining activity at 3.75 µM in experiment [2] (Well no.=132) was 105%.
On to `CC[C@H](C)[C@H](N)C(=O)N1CCC[C@H]1C(=O)N[C@H](C(=O)O)[C@@H](C)CC` [Ile-Pro-Ile], for which the remaining activity at 1.25 µM in experiment [1] (Well no.=5849) is 100%. In addition, the remaining activity at 3.75 µM in experiment [2] (Well no.=5849) stood at 99.6%.
Take `CC(C)c1cc(C(C)C)c(-c2csc(N(CCN(C)C)Cc3cccnc3)n2)c(C(C)C)c1` [SR 27417]: in experiment [1] (Well no.=5599), the remaining activity at 1.25 µM is 100%. Besides, the remaining activity at 3.75 µM in experiment [2] (Well no.=5599) was 100%.
As for `Clc1ccc(C(Cn2ccnc2)OCc2csc3c(Cl)cccc23)c(Cl)c1` (stereo not shown) [Sertaconazole], in experiment [1] (Well no.=1840), the remaining activity at 1.25 µM stood at 101%. The remaining activity at 3.75 µM in experiment [2] (Well no.=1840) came out at 98.3%.
For the compound `COc1ccccc1OCC(O)CN1CCN(CC(=O)Nc2c(C)cccc2C)CC1` (stereo not shown) [Ranolazine dihydrochloride], the remaining activity at 1.25 µM in experiment [1] (Well no.=1254) was found to be 108%. The remaining activity at 3.75 µM in experiment [2] (Well no.=1254) stood at 106%.
As to `O=C(O)[C@@H]1[C@H](C(=O)O)[C@H]2CC[C@@H]1O2` [Endothall], the remaining activity at 1.25 µM in experiment [1] (Well no.=701) is 97.9%. In addition, in experiment [2] (Well no.=701), the remaining activity at 3.75 µM amounted to 97.8%.
In the case of `NC(=O)c1cccc(N)c1` [3-aminobenzamide], in experiment [1] (Well no.=199), the remaining activity at 1.25 µM amounted to 101%. Further, the remaining activity at 3.75 µM in experiment [2] (Well no.=199) turned out to be 98.8%.
As for `CC(C)C[C@H](CO)Nc1nc(S[C@@H](C)c2ccccc2)nc2nc(N)sc12` [AZD8797], in experiment [1] (Well no.=8313), the remaining activity at 1.25 µM amounted to 103%. Moreover, the remaining activity at 3.75 µM in experiment [2] (Well no.=8313) is 103%.
Turning to `Cc1cccc(-c2[nH]c(C(C)(C)C)nc2-c2ccc3c(c2)OCO3)n1` [SB-505124], the remaining activity at 1.25 µM in experiment [1] (Well no.=4814) was found to be 101%. Moreover, the remaining activity at 3.75 µM in experiment [2] (Well no.=4814) came out at 95.6%.
Turning to `CCCOc1ccc(/C=C2/SC(=O)NC2=O)cc1` [PIM1/2 Kinase Inhibitor VI], in experiment [1] (Well no.=2571), the remaining activity at 1.25 µM is 97.6%. Further, the remaining activity at 3.75 µM in experiment [2] (Well no.=2571) stood at 97%.
Consider `CN1CCN(c2cccc(Nc3nc4c(-c5ccc(S(C)(=O)=O)cc5)cccn4n3)c2)CC1` [CEP33779], for which, in experiment [1] (Well no.=5129), the remaining activity at 1.25 µM was determined as 104%. Moreover, the remaining activity at 3.75 µM in experiment [2] (Well no.=5129) turned out to be 106%.
On to `CC1(C)CC(=O)c2c(C(F)(F)F)nn(-c3ccc(C(N)=O)c(N[C@H]4CC[C@H](OC(=O)CN)CC4)c3)c2C1` [PF-04929113 (SNX-5422)], for which the remaining activity at 1.25 µM in experiment [1] (Well no.=4637) was 101%. The remaining activity at 3.75 µM in experiment [2] (Well no.=4637) worked out at 105%.
In the case of `CN1CCN(C2=Nc3ccccc3Sc3ccc(Cl)cc32)CC1` [Clothiapine], in experiment [1] (Well no.=1815), the remaining activity at 1.25 µM was determined as 102%. Further, in experiment [2] (Well no.=1815), the remaining activity at 3.75 µM amounted to 99.6%.
